This note sets out measurements from patent US7642358B2, “Substituted phenylacetic acids” (Metabolex, Inc., priority 2002, dated 2010).

For the test, the system named is C57BL/6J ob/ob mice. Kind of test: Anti-diabetic activity (plasma glucose lowering) in C57BL/6J ob/ob mice, oral gavage. The conditions noted are these: male C57BL/6J ob/ob mice, oral gavage once a day for 1-4 days; for minimal effective dose: Mus musculus, dose effective for plasma glucose lowering, blood taken 6 hours after each dose, read-out: Potency. The format is in vivo, mouse. The method, then:
The anti-diabetic activities of the compounds were evaluated in the C57BL/6j ob/ob Mice model.
Male, 7-9 weeks old, C57BL/6J ob/ob mice were purchased from The Jackson Laboratory (Bar Harbor, Me., USA). Animals were housed (4-5 mice/cage) under standard laboratory conditions at 22±3° C. temperature and 50±20% relative humidity, and were maintained on a diet of Purina rodent chow and water ad libitum. Prior to treatment, blood was collected from the tail vein of each animal. Mice that had non-fasting plasma glucose levels between 250 and 500 mg/dl were used. Each treatment group consisted of 8-10 mice that were distributed so that the mean glucose levels were equivalent in each group at the start of the study. Mice were dosed orally by gavage once a day for 1-4 days with vehicle and one or more dose of test compound at a dose ranging from 5 to 125 mg/kg. Compounds were delivered in a liquid formulation containing 5% (v/v) dimethyl sulfoxide (DMSO), 1% (v/v) Tween 80® and 0.9% (w/v) methylcellulose. The gavage volume was 10 ml/kg. Blood samples were taken at 6 hours after the each dose and analyzed for plasma glucose. Food intake and body weight were measured daily. Plasma glucose concentrations were determined colorimetrically using a commercial glucose oxidase method (Sigma Chemical Co, St. Louis, Mo., USA). Significant difference between groups (comparing drug-treated to vehicle-treated) was evaluated using the Student unpaired t-test.
FIG. 6 illustrates the anti-diabetic effects of selected compounds of the present invention. Table 15 provides the relative potency of some of these selected compounds. Compounds that are effective for glucose lowering at the dose of ≧125 mg/kg are assigned a potency of +; compounds that are effective for glucose lowering at a dose of >25 mg/kg but <125 mg/kg are assigned a potency of ++; compounds that are effective for glucose lowering at a dose of ≦25 mg/kg are assigned a potency of +++. For example, a compound at 25 mg/kg that lowered the animal glucose level from 400 mg/dL (vehicle group value) to 250 mg/dL, is assigned the potency of +++.

With `O=C(O)C(Oc1ccc(C(F)(F)F)cc1-n1nc2ccccc2n1)c1ccc(C(F)(F)F)cc1` (centres unmarked) [XI-51], the minimal effective dose was at most 25 mg/kg and the “Insulin Level compared with vehicle” value is reported as “Lower”.
Turning to `CC(Oc1ccc(C(F)(F)F)cc1-c1nc2ccccc2o1)(C(=O)O)c1ccccc1` (centres unmarked) [Ia-365], the minimal effective dose was at most 25 mg/kg and the “Insulin Level compared with vehicle” value is “Lower”.
Consider `Cc1ccc(OC(C)(C(=O)O)c2ccc(Cl)cc2)c(-n2nc3ccccc3n2)c1` (centres unmarked) [XIa-5], for which the minimal effective dose is at most 25 mg/kg and the “Insulin Level compared with vehicle” value is on record as “Lower”.
The like results for `O=C(O)C(Oc1ccccc1-c1nc2ccccc2o1)c1cccc(C(F)(F)F)c1` (centres unmarked) [Example I-3] were, in that order, at least 125 mg/kg and “Lower”.
On the same counts, the results for `O=C(O)C(Oc1ccc(C(F)(F)F)cc1-n1nc2ccccc2n1)c1cccc(C(F)(F)F)c1` (centres unmarked) [XI-47] are at most 25 mg/kg and “Lower”.
Regarding `O=C(O)C(Oc1ccccc1-c1nc2ccccc2o1)c1ccc(Cl)cc1` (centres unmarked) [Example I-1], the minimal effective dose was 25 to 125 mg/kg and the “Insulin Level compared with vehicle” value was “Lower”.
On the same counts, the results for `O=C(O)C(Oc1ccc(C(F)(F)F)cc1-c1nc2ccccc2o1)c1ccccc1` (centres unmarked) [Example I-92] are at most 25 mg/kg and “Lower”.
In the case of `Cc1ccc(OC(C(=O)O)c2cccc(C(F)(F)F)c2)c(-n2nc3ccccc3n2)c1` (centres unmarked) [XI-2], the minimal effective dose is at most 25 mg/kg and the “Insulin Level compared with vehicle” value is “Lower”.
With `O=C(O)C(Oc1ccc(Cl)cc1-c1nc2ccccc2o1)c1cccc(C(F)(F)F)c1` (centres unmarked) [Example I-191], the minimal effective dose was at most 25 mg/kg and the “Insulin Level compared with vehicle” value is recorded as “Lower”.
On to `CC(Oc1ccc(C(F)(F)F)cc1-c1nc2ccccc2o1)(C(=O)O)c1ccccc1` (centres unmarked) [Ia-366], for which the “Insulin Level compared with vehicle” value is recorded as “Lower”.
With `O=C(O)C(Oc1ccc(C(F)(F)F)cc1-c1nc2ccccc2o1)c1cccc(C(F)(F)F)c1` (centres unmarked) [Example I-89], the minimal effective dose is at most 25 mg/kg and the “Insulin Level compared with vehicle” value is “Lower”.
Turning to `O=C(O)C(Oc1ccc(Cl)cc1-c1nc2ccccc2o1)c1cccc(Cl)c1` (centres unmarked) [Example I-194], the minimal effective dose is at most 25 mg/kg and the “Insulin Level compared with vehicle” value is on record as “Lower”.
For the compound `COc1ccc(C(Oc2ccc(Cl)cc2-c2nc3ccccc3o2)C(=O)O)cc1` (centres unmarked) [Example I-193], the minimal effective dose is at most 25 mg/kg and the “Insulin Level compared with vehicle” value is “Lower”.
The like results for `O=C(O)C(Oc1ccc(Cl)cc1-n1nc2ccccc2n1)c1ccc(C(F)(F)F)cc1` (centres unmarked) [XI-24] were, in that order, at most 25 mg/kg and “Lower”.
With `Cc1ccc(OC(C(=O)O)c2ccc(C(F)(F)F)cc2)c(-n2nc3ccccc3n2)c1` (centres unmarked) [XI-6], the minimal effective dose was at most 25 mg/kg and the “Insulin Level compared with vehicle” value is “Lower”.
In the case of `O=C(O)C(Oc1ccc(Cl)cc1-c1nc2ccccc2o1)c1ccc(Cl)cc1` (centres unmarked) [Example I-190], the minimal effective dose is at most 25 mg/kg and the “Insulin Level compared with vehicle” value is listed as “Lower”.
Take `CC(Oc1ccc(C(F)(F)F)cc1-n1nc2ccccc2n1)(C(=O)O)c1ccc(C(F)(F)F)cc1` (centres unmarked) [XIa-51]: the minimal effective dose is at most 25 mg/kg and the “Insulin Level compared with vehicle” value was “Lower”.
On the same counts, the results for `O=C(O)[C@@H](Oc1ccc(C(F)(F)F)cc1-c1nc2ccccc2o1)c1ccccc1` [Example I-369] are at most 25 mg/kg and “Lower”.
